From patent publication US7256187B2, “Rifamycin C-11 oxime derivatives effective against drug-resistant microbes” (Cumbre Pharmaceuticals Inc., priority 2004, dated 2007)
In brackets after ≈: the same amount, converted by molar mass.

Tests used:
Type in all cases: cell-based
[1] = system: Staphylococcus aureus ATCC29213; assay: MIC, microbroth dilution; details: Staphylococcus aureus ATCC29213, rifS; read-out: Antimicrobial activity (MIC)
[2] = system: Staphylococcus aureus ATCC29213 rpoB^D417Y; assay: microbe, parasite or virus in culture; details: Staphylococcus aureus ATCC29213 rpoB^D417Y, rifR; read-out: Antimicrobial activity (MIC)
Protocol: (§1) Representative compounds were assayed for antimicrobial activity as follows: Minimum Inhibitory Concentrations (“MICs”) were determined by the microbroth dilution method as per NCCLS guidelines (National Committee for Clinical Laboratory Standards. 2000. Methods for dilution antimicrobial susceptibility tests for bacteria that grow aerobically, 5th ed. M7-A5. National Committee for Clinical Laboratory Standards, Wayne, Pa.), except that all growth incubations were conducted at 37° C. Bacterial cultures were tested in the following bacteriological media: S. aureus, S. epidermidis, and E. coli in Cation-Adjusted Mueller-Hinton Broth, S. pneumoniae in THY Broth supplemented with 1 mg/mL catalase under 5% CO2 atmosphere, S. pyogenes in THY Broth, E. faecalis in BHI Broth, H. influenzae in BHI Broth supplemented with 0.75 μL of 1 mg/mL NAD and 150 μL of 1 mg/ml hematin per 5 mL, and M. smegmatis in Middlebrook Broth plus ADC Enrichment.
(§2) S. aureus ATCC 29213 RpoB^H418Y is a rifampin-resistant strain with a mutation in the RpoB gene of RNA polymerase. […] S. aureus EN1252a gyrA^S84L grlA^S80F is a quinolone-resistant strain due to double gene mutations of DNA gyrase and topoisomerase IV.

[3] = system: Staphylococcus aureus ATCC29213 rpoB^H418Y; assay: microbe, parasite or virus in culture; details: Staphylococcus aureus ATCC29213 rpoB^H418Y, rifR; read-out: Antimicrobial activity (MIC)
Protocol: as §1, §2

[4] = system: Staphylococcus aureus EN1252a gyrA^S84L grlA^S80F; assay: microbe, parasite or virus in culture; details: Staphylococcus aureus EN1252a gyrA^S84L grlA^S80F, cipR; read-out: Antimicrobial activity (MIC)
Protocol: as §1, §2

[5] = system: Staphylococcus epidermidis ATCC12228; assay: MIC, microbroth dilution; details: Staphylococcus epidermidis ATCC12228, rifS; read-out: Antimicrobial activity (MIC)
[6] = system: Streptococcus pneumoniae ATCC6303; assay: MIC, microbroth dilution; details: Streptococcus pneumoniae ATCC6303, rifS; read-out: Antimicrobial activity (MIC)
[7] = system: Streptococcus pyogenes ATCC19615; assay: MIC, microbroth dilution; details: Streptococcus pyogenes ATCC19615, rifS; read-out: Antimicrobial activity (MIC)
[8] = system: Enterococcus faecalis ATCC29212; assay: MIC, microbroth dilution; details: Enterococcus faecalis ATCC29212, rifS; read-out: Antimicrobial activity (MIC)
[9] = system: Haemophilus influenzae ATCC10211; assay: MIC, microbroth dilution; details: Haemophilus influenzae ATCC10211, rifS; read-out: Antimicrobial activity (MIC)
[10] = system: Escherichia coli ATCC25922; assay: MIC, microbroth dilution; details: Escherichia coli ATCC25922, rifS; read-out: Antimicrobial activity (MIC)
[11] = system: Mycobacterium smegmatis ATCC700084; assay: MIC, microbroth dilution; details: Mycolicibacterium smegmatis; Mycobacterium smegmatis ATCC700084, rifS; read-out: Antimicrobial activity (MIC)

SMILES	MIC [1] [mg/L]	MIC [2] [mg/L]	MIC [3] [mg/L]	MIC [4] [mg/L]	MIC [5] [mg/L]	MIC [6] [mg/L]	MIC [7] [mg/L]	MIC [8] [mg/L]	MIC [9] [mg/L]	MIC [10] [mg/L]	MIC [11] [mg/L]
COCCOCO/N=C1/c2c3c(C)c(O)c4c2C(=O)C=C(NC(=O)/C(C)=C\C=C\[C@H](C)[C@H](O)[C@@H](C)[C@@H](O)[C@@H](C)[C@H](OC(C)=O)[C@H](C)[C@@H](OC)/C=C/O[C@@]1(C)O3)C4=O [Example 10, 11-Deoxy-11-methoxyethoxymethoxyiminorifamycin S]	0.004 to 0.5 (≈ 0.00501 to 0.626 µM)	0.25 to 32 (≈ 0.313 to 40.1 µM)	0.125 to 16 (≈ 0.156 to 20 µM)	0.004 to 0.5 (≈ 0.00501 to 0.626 µM)	0.0005 to 0.063 (≈ 0.000626 to 0.0789 µM)	0.0002 to 0.125 (≈ 0.00025 to 0.156 µM)	0.0005 to 0.063 (≈ 0.000626 to 0.0789 µM)	2 to 32 (≈ 2.5 to 40.1 µM)	0.03 to 2 (≈ 0.0376 to 2.5 µM)	0.125 to 8 (≈ 0.156 to 10 µM)	0.5 to 64 (≈ 0.626 to 80.1 µM)
C=CCO/N=C1/c2c3c(C)c(O)c4c2C(=O)C=C(NC(=O)/C(C)=C\C=C\[C@H](C)[C@H](O)[C@@H](C)[C@@H](O)[C@@H](C)[C@H](OC(C)=O)[C@H](C)[C@@H](OC)/C=C/O[C@@]1(C)O3)C4=O [Example 11, 11-Deoxy-11-allyloxyiminorifamycin S]	0.004 to 0.5 (≈ 0.00533 to 0.666 µM)	0.25 to 32 (≈ 0.333 to 42.6 µM)	0.125 to 16 (≈ 0.166 to 21.3 µM)	0.004 to 0.5 (≈ 0.00533 to 0.666 µM)	0.0005 to 0.063 (≈ 0.000666 to 0.0839 µM)	0.0002 to 0.125 (≈ 0.000266 to 0.166 µM)	0.0005 to 0.063 (≈ 0.000666 to 0.0839 µM)	2 to 32 (≈ 2.66 to 42.6 µM)	0.03 to 2 (≈ 0.04 to 2.66 µM)	0.125 to 8 (≈ 0.166 to 10.7 µM)	0.5 to 64 (≈ 0.666 to 85.2 µM)
CO[C@H]1/C=C/O[C@@]2(C)Oc3c(C)c(O)c4c(c3/C2=N/OCCBr)C(=O)C=C(NC(=O)/C(C)=C\C=C\[C@H](C)[C@H](O)[C@@H](C)[C@@H](O)[C@@H](C)[C@H](OC(C)=O)[C@@H]1C)C4=O [Example 12, 11-Deoxy-11-(2-bromoethoxyimino)rifamycin S]	0.004 to 0.5 (≈ 0.00489 to 0.611 µM)	0.25 to 32 (≈ 0.306 to 39.1 µM)	0.125 to 16 (≈ 0.153 to 19.6 µM)	0.004 to 0.5 (≈ 0.00489 to 0.611 µM)	0.0005 to 0.063 (≈ 0.000611 to 0.077 µM)	0.0002 to 0.125 (≈ 0.000245 to 0.153 µM)	0.0005 to 0.063 (≈ 0.000611 to 0.077 µM)	2 to 32 (≈ 2.45 to 39.1 µM)	0.03 to 2 (≈ 0.0367 to 2.45 µM)	0.125 to 8 (≈ 0.153 to 9.78 µM)	0.5 to 64 (≈ 0.611 to 78.3 µM)
COc1c(N2CCN(CCO/N=C3/c4c5c(C)c(O)c6c4C(=O)C=C(NC(=O)/C(C)=C\C=C\[C@H](C)[C@H](O)[C@@H](C)[C@@H](O)[C@@H](C)[C@H](OC(C)=O)[C@H](C)[C@@H](OC)/C=C/O[C@@]3(C)O5)C6=O)C(C)C2)c(F)cc2c(=O)c(C(=O)O)cn(C3CC3)c12 (some centres unmarked) [Example 13]	0.004 to 0.5 (≈ 0.0036 to 0.45 µM)	0.25 to 32 (≈ 0.225 to 28.8 µM)	0.125 to 16 (≈ 0.112 to 14.4 µM)	0.004 to 0.5 (≈ 0.0036 to 0.45 µM)	0.0005 to 0.063 (≈ 0.00045 to 0.0566 µM)	0.0002 to 0.125 (≈ 0.00018 to 0.112 µM)	0.0005 to 0.063 (≈ 0.00045 to 0.0566 µM)	2 to 32 (≈ 1.8 to 28.8 µM)	0.03 to 2 (≈ 0.027 to 1.8 µM)	0.125 to 8 (≈ 0.112 to 7.19 µM)	0.5 to 64 (≈ 0.45 to 57.5 µM)
CO[C@H]1/C=C/O[C@@]2(C)Oc3c(C)c(O)c4c(c3/C2=N/OCCN2CCN(c3cc5c(cc3F)c(=O)c(C(=O)O)cn5C3CC3)CC2)C(=O)C=C(NC(=O)/C(C)=C\C=C\[C@H](C)[C@H](O)[C@@H](C)[C@@H](O)[C@@H](C)[C@H](OC(C)=O)[C@@H]1C)C4=O [Example 15]	0.004 to 0.5 (≈ 0.00374 to 0.468 µM)	0.25 to 32 (≈ 0.234 to 30 µM)	0.125 to 16 (≈ 0.117 to 15 µM)	0.004 to 0.5 (≈ 0.00374 to 0.468 µM)	0.0005 to 0.063 (≈ 0.000468 to 0.059 µM)	0.0002 to 0.125 (≈ 0.000187 to 0.117 µM)	0.0005 to 0.063 (≈ 0.000468 to 0.059 µM)	2 to 32 (≈ 1.87 to 30 µM)	0.03 to 2 (≈ 0.0281 to 1.87 µM)	0.125 to 8 (≈ 0.117 to 7.49 µM)	0.5 to 64 (≈ 0.468 to 59.9 µM)
CO[C@H]1/C=C/O[C@@]2(C)Oc3c(C)c(O)c4c(c3/C2=N/OCCN2CCN(c3ccc(N5C[C@H](CNC(C)=O)OC5=O)cc3F)CC2)C(=O)C=C(NC(=O)/C(C)=C\C=C\[C@H](C)[C@H](O)[C@@H](C)[C@@H](O)[C@@H](C)[C@H](OC(C)=O)[C@@H]1C)C4=O [Example 16]	0.004 to 0.5 (≈ 0.00373 to 0.466 µM)	0.25 to 32 (≈ 0.233 to 29.8 µM)	0.125 to 16 (≈ 0.116 to 14.9 µM)	0.004 to 0.5 (≈ 0.00373 to 0.466 µM)	0.0005 to 0.063 (≈ 0.000466 to 0.0587 µM)	0.0002 to 0.125 (≈ 0.000186 to 0.116 µM)	0.0005 to 0.063 (≈ 0.000466 to 0.0587 µM)	2 to 32 (≈ 1.86 to 29.8 µM)	0.03 to 2 (≈ 0.028 to 1.86 µM)	0.125 to 8 (≈ 0.116 to 7.45 µM)	0.5 to 64 (≈ 0.466 to 59.6 µM)
CO[C@H]1/C=C/O[C@@]2(C)Oc3c(C)c(O)c4c(c3/C2=N/OCCN2CCN(c3ccccn3)CC2)C(=O)C=C(NC(=O)/C(C)=C\C=C\[C@H](C)[C@H](O)[C@@H](C)[C@@H](O)[C@@H](C)[C@H](OC(C)=O)[C@@H]1C)C4=O [Example 17]	0.004 to 0.5 (≈ 0.00444 to 0.556 µM)	0.25 to 32 (≈ 0.278 to 35.6 µM)	0.125 to 16 (≈ 0.139 to 17.8 µM)	0.004 to 0.5 (≈ 0.00444 to 0.556 µM)	0.0005 to 0.063 (≈ 0.000556 to 0.07 µM)	0.0002 to 0.125 (≈ 0.000222 to 0.139 µM)	0.0005 to 0.063 (≈ 0.000556 to 0.07 µM)	2 to 32 (≈ 2.22 to 35.6 µM)	0.03 to 2 (≈ 0.0333 to 2.22 µM)	0.125 to 8 (≈ 0.139 to 8.89 µM)	0.5 to 64 (≈ 0.556 to 71.1 µM)
